Reference: patent US6573078B1, “Compounds which inhibit HIV replication” (priority 1992, dated 2003)
“Also recorded” adds a separate entry of the source.

Columns and labels:
[1] = system: HIV-1LAI virus; test: Peptide blockade of HIV-1 induced cell-cell fusion (syncytia formation; Molt4 cells co-cultivated with chronically infected CEM cells); format: cell-based; design: Anti-fusogenic activity (in words): dose or concentration left out as unconfirmed; conditions: for Fusion: quantity of compound required for 90% reduction in number of syncytia: control = 90 syncytia; for No. Syncytia/well: Table 3, ctrl cells only = 85; for Inhibitory / anti-viral / biological activity (in words): cell fusion assay
Procedure: The initial screen for antiviral activity of the peptides shown in FIG. 1 was for blockade of syncytium formation induced by overnight co-cultivation of uninfected Molt4 cells with chronically infected (HIV-1IIIB) CEM cells.
Approximately 7×10^4 Molt cells were incubated with 1×10^4 CEM cells chronically infected with the HIV-1LAI virus in 96 well plates (one-half area cluster plates;Costar. Cambridge, Mass.) in a final volume of […] culture media in accordance with known techniques (T. Matthews et al., Proc. Natl. Acad. Sci. U.S.A. 84, 5424 (1987)). Peptide inhibitors were added in a volume of […] and the cell mixtures were incubated for 24 hr at 37° C. At that time point, multinucleated giant cells were estimated by microscopic examination at a 40× magnification which allowed visualization of the entire well in a single field.

[2] = system: HIV-1LAI; test: Peptide inhibition of infection by cell-free virus (neutralization assay; AA5 cells, RT activity readout); format: cell-based
Procedure: Cell cultures were maintained in 96-well microtiter plates for 8 days by addition of fresh medium (but no further addition of peptides) every other day. On the eighth day post-infection, supernatant was tested for reverse transcriptase activity as evidence of successful infection.
The micro RT assay was adapted from Goff et al. (J. Virol. 38, 239 (1981)) and Willey et al. (J. Virol. 62, 139 (1988)). Supernatants from virus/cell cultures are made 1% in Triton-X100. A […] sample of supernatant was added to 50 ml of RT cocktail in a 96 well U bottom microtiter plate and the samples incubated at […] for 90 min. The cocktail contained 75 mM KCl, 2 mM dithiothreitol, 5 mm Mgcl2l 5 mg/ml poly A (Pharmacia cat. No. 27-4110-01), 0.25 units/ml oligo dT (Pharmacia cat. No. 27-7858-01), 0.05% NP40, 50 mM Tris-HC1, pH 7.8, 0.5 mM non-radioactive dTTP, and 10 mCi/ml ^32p-dTTP (Amersham cat. No. PB.10167). After the incubation period, 40 ml of reaction mixture was applied to a Schleicher and Schuell NA45 membrane (or DE81 paper) saturated in 2×SSC buffer (0.3M NaCl and […]) held in a Schleicher and Schuell Minifold over one sheet of GB003 filter paper. Each well of the minifold was washed four times with […] 2×SSC. The membrane was removed from the minifold and washed 2 more times in a pyrex dish with an excess of 2×SSC. Finally the membrane was drained on absorbent paper, placed on Whatman #3 paper, covered with saran wrap, and exposed to film overnight.
The HIV1LAI virus was obtained from R. Gallo (see M. Popovic et al., Science 224, 497 (1984)) and propagated in CEM cells cultured in RPMI 1640 containing 10-% FCS. Supernatant from the infected CEM cells was passed through a […] and the infectious titer estimated in a microinfectivity assay using the AA5 cell line to support virus replication. For this purpose 25 ml of serially diluted virus was added to 75 ml AA5 cells at 2×10^5/ml in a 96 well microtiter plate. Each virus dilution was tested in triplicate. Cells were cultured for eight days by addition of fresh medium every other day. On day 8 post infection supernatant samples were tested for virus replication as evidenced by RT activity released to the supernatant in accordance with the procedure described above. The TCID50 was calculated according to the Reed and Muench formula in accordance with known techniques. See L. Reed et al., Amer. J. Hygiene 27, 493 (1938) . The titer of the HIV-1LAI stock used for these studies, as measured on the AA5 cell line, was approximately 1×10^7TCID50/ml. The two primary isolates were obtained from PBMCs of two infected donors, one from Brazil (HIV-1Br3) and the other Trinidad (HIV-1Q72775) by co-cultivation with PHA-blasted normal donor PBMCs in RPMI 1640 containing IL2. The infectious titers of the primary virus stocks were estimated by titration onto normal human PHA blasted PBMCs in a 96 well microtiter plate, again using RT activity released to the supernatant as evidence for successful infection. The infectious titer of both of these isolates was estimated to be approximately 1×10^3 TCID100/ml.
The peptides were next tested for blockade of infection by cell-free virus. The results shown in FIG. 3 are representative of several experiments in which the DP-107, 125, and (CS3) peptides were compared for potency in the blockade of HIVLAI, infection of AA5 cells. Each level of peptide was incubated in triplicate with about 500 TCID50 of virus and cells. After 7 days of culture, cell-free supernatant was tested for the presence of RT activity as a measure of successful infection.

[3] = system: CEM cells; test: Cytotoxic or cytostatic effects on CEM cells grown in presence of peptide; format: cell-based; conditions: 50 mg/ml (highest concentration tested), three days, fresh peptide added each day
[4] = Circular dichroism spectra / thermal melt (secondary structure in solution); format: physicochemical; conditions: for Conformation by CD spectra (in words): 37° C.
Procedure: (A) and 37° C. (B). Concentration dependence of the midpoint of the temperature dependence (Tm) of the CD signal (C). Tm corresponds to the maxima of the first derivative of the CD melt curve. The CD spectra were obtained in […], 150 mM sodium chloride buffer at pH 7.0.
Circular dichroism spectra were measured in 10 mM sodium phosphate, 150 mM sodium chloride, pH 7.0 buffer at approximately […] using a 1 cm pathlength cell on a Jobin/Yvon Autodichrograph Mark V CD spectrometer. Peptide concentrations were determined from A280 using Edlehoch's method (Biochemistry 6, 1948 (1967)).

[5] = molecular target: the molecule itself; test: CD thermal melt, concentration dependence of Tm (self-association)
[6] = peptide concentration 40 ug/ml on IIIB
[7] = peptide concentration 1.25 ug/ml on IIIB
[8] = peptide concentration 2.5 ug/ml on IIIB
[9] = peptide concentration 5 ug/ml on IIIB
[10] = peptide concentration 10 ug/ml on IIIB
[11] = peptide concentration 20 ug/ml on IIIB
[12] = EXP. 1, peptide concentration 1.5 micrograms/ml, 0 peptide = 89
[13] = EXP. 1, peptide concentration 3 micrograms/ml, 0 peptide = 89
[14] = EXP. 1, peptide concentration 6 micrograms/ml, 0 peptide = 89
[15] = EXP. 1, peptide concentration 12 micrograms/ml, 0 peptide = 89
[16] = EXP. 1, peptide concentration 25 micrograms/ml, 0 peptide = 89
[17] = EXP. 1, peptide concentration 50 micrograms/ml, 0 peptide = 89

Row | Molecule | Fusion: quantity of compound required for 90% reduction in number of syncytia [1] | Neutraliz: quantity of compound required for 90% reduction in infectivity [2] | No. Syncytia/well [1, 6] | No. Syncytia/well [1, 7] | No. Syncytia/well [1, 8] | No. Syncytia/well [1, 9] | No. Syncytia/well [1, 10] | No. Syncytia/well [1, 11] | further results
1 | NNLLRAIEAQQHLLQLTVWGAKQLQARILAVERYLKDQ [DP-140] | 17 µg/mL | 14 µg/mL | – | – | – | – | – | – | –
2 | GIKQLQARILAVERYLKDQQ [DP-122] | >40 µg/mL | >30 µg/mL | 73 | – | – | – | – | – | –
3 | QQLLDVVKRQQEMLRLTVWGTKNLQARVTAIEKYLKDQ [DP-118] | – | – | 0 | 74 | 78 | 80 | 77 | 0 | –
4 | Ac-NNLLRAIEAQQHLLQLTVWGIKQLQARILAVERYLKDQ-NH2 [DP-107] | – | – | – | – | – | – | – | – | Viability and growth rate of CEM cells [3]: same viability and growth rate as control cultures
5 | NNLLRAIEAQQHLLQLTVWGIKQLQARILAV [DP-127] | 7 µg/mL | 23 µg/mL | 0 | 87 | 53 | 20 | 0 | 0 | –
6 | NNLLRAIEAQQHLLQLTVWGPKQLQARILAVERYLKDQ (Ac-NNLLRAIEAQQHLLQLTVWGPKQLQARILAVERYLKDQ-NH2) [DP-121] | >40 µg/mL | >30 µg/mL | 79 | – | – | – | – | – | Syncytia Number ([1]; EXP. 3, peptide concentration 2.5 micrograms/ml, 0 peptide = 76): 68; Syncytia Number ([1]; EXP. 3, peptide concentration 5 micrograms/ml, 0 peptide = 76): 60; Syncytia Number ([1]; EXP. 3, peptide concentration 10 micrograms/ml, 0 peptide = 76): 65; Syncytia Number ([1]; EXP. 3, peptide concentration 20 micrograms/ml, 0 peptide = 76): 71; Syncytia Number ([1]; EXP. 3, peptide concentration 40 micrograms/ml, 0 peptide = 76): 69; Inhibitory / anti-viral / biological activity (in words) [1]: did not exhibit anti-viral activity; also recorded: no sign of inhibitory activity; Conformation by CD spectra (in words) [4]: random coil conformations; also recorded: failed to exhibit helix related signals
7 | NNLLRAIEAQQHLLQLTVWGIKQLQARILAVERYLKDQGGC [DP-129] | <1 µg/mL | <1 µg/mL | 0 | 0 | 0 | 0 | 0 | 0 | –
8 | LQARILAVERYLKDQQQ [DP-116, reference compound] | >40 µg/mL | >30 µg/mL | 77 | – | – | – | – | – | Anti-fusogenic activity (in words) [1]: no evidence of anti-fusogenic activity; Syncytia Number [1, 12]: 82; Syncytia Number [1, 13]: 89; Syncytia Number [1, 14]: 92; Syncytia Number [1, 15]: 93; Syncytia Number [1, 16]: 82; Syncytia Number [1, 17]: 89; Blockade of HIVLAI infection of AA5 cells (in words) ([2]; about 500 TCID50 of virus, RT activity in supernatant, FIG. 3): no hint of anti-viral effect; Conformation by CD spectra (in words) [4]: random coil conformations; Stable secondary structure by CD (in words) ([4]; even at low temperatures and high concentrations): no evidence for stable secondary structure
9 | CGGNNLLRAIEAQQHLLQLTVWGIKQLQARILAVERYLKDQGGC [DP-130] | 2 µg/mL | <1 µg/mL | 0 | 47 | 0 | 0 | 0 | 0 | –
10 | DP-31: peptide representing an overlapping immunodominant site of gp41 (SEQ ID NO: 5); sequence only in FIG. 1 (H-ERYLKDQQLLGIWGCSCKLICG-OH; cysteine pairing not given here) | – | – | – | – | – | – | – | – | Syncytia Number [1, 12]: 75; Syncytia Number [1, 13]: 90; Syncytia Number [1, 14]: 87; Syncytia Number [1, 15]: 78; Syncytia Number [1, 16]: 80; Syncytia Number [1, 17]: 85; Inhibitory / anti-viral / biological activity (in words) [1]: failed to show inhibitory activity
11 | IEAQQHLLQLTVWGIKQLQARILAVERYLKDQ [DP-123] | 40 µg/mL | >30 µg/mL | 4 | 80 | 69 | 76 | 86 | 55 | –
12 | NNLLRAIEAQQHLLQLTVWGSKQLQARILAVERYLKDQ [DP-139] | >40 µg/mL | >30 µg/mL | – | – | – | – | – | – | –
13 | CGGNNLLRAIEAQQHLLQLTVWGIKQLQARILAV [DP-136] | >40 µg/mL | >30 µg/mL | – | – | – | – | – | – | –
14 | Ac-NNLLRAIEAQQHLLQLTVWGIKQLQARILAVERYLKDQ-NH2 (Synthetic peptide; also called peptide DP-107) [DP-107] | – | – | – | – | – | – | – | – | binding result [5]: binds
